AC50 data for 21 molecules are collected here from ChEMBL document CHEMBL5291721, “A preclinical secondary pharmacology resource illuminates target-adverse drug reaction associations of marketed drugs” (Nat Commun, 2023).

Each structure is given as a SMILES string. Where only a bound is given, the exact number is not on record here.

A word on the AC50: it is the concentration giving half of the maximal activity seen.

Assay [1] concerns the target Sodium channel protein type 5 subunit alpha (Homo sapiens, UniProt Q14524). It is filed as functional, cell-based.
Assay [2] deals with Voltage-dependent N-type calcium channel subunit alpha-1B (Rattus norvegicus, UniProt Q02294). It is filed as functional.
For assay [3], the target named is Neurotensin receptor type 1 (Homo sapiens, UniProt P30989).
The target of assay [4] is 5-hydroxytryptamine receptor 6 (Homo sapiens, UniProt P50406).
Assay [5] concerns the target T1, 5-hydroxytryptamine receptor 1A (Homo sapiens, UniProt P08908).
T1 sequence (P08908 whole entry): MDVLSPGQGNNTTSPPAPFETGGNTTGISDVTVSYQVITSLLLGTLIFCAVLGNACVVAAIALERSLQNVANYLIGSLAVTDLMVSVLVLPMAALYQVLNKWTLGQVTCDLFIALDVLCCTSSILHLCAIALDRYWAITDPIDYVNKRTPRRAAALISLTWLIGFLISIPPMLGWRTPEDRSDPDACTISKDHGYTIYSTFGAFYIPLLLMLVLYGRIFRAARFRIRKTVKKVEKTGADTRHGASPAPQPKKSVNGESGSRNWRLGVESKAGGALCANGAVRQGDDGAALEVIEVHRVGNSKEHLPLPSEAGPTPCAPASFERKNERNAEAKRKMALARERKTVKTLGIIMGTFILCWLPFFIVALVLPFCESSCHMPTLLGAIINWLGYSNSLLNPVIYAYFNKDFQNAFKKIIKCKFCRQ

Assay [6] concerns the target Beta-3 adrenergic receptor (Homo sapiens, UniProt P13945).
In assay [7] the target is T2, B1 bradykinin receptor (Homo sapiens, UniProt P46663).
T2 sequence (P46663 whole entry): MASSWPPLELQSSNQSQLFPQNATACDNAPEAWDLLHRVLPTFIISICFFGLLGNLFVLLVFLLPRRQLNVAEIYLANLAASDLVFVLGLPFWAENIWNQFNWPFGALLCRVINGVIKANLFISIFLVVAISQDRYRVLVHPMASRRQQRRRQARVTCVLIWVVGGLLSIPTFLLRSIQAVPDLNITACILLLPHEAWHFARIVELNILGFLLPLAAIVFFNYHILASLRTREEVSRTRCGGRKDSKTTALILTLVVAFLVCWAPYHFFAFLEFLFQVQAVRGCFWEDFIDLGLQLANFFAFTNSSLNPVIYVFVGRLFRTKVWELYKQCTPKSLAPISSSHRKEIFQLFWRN

Assay [8] has as its target 5-hydroxytryptamine receptor 7 (Homo sapiens, UniProt P34969).
Assay [9] addresses Histamine H2 receptor (Homo sapiens, UniProt P25021).
Assay [10] concerns the target Synaptic vesicular amine transporter (Rattus norvegicus, UniProt Q01827). Format: functional.
In assay [11] the target is T1, 5-hydroxytryptamine receptor 1A. The source holds these as a separate data set.
The target in assay [12] is T3, Progesterone receptor (Homo sapiens, UniProt P06401).
T3 sequence (P06401 whole entry): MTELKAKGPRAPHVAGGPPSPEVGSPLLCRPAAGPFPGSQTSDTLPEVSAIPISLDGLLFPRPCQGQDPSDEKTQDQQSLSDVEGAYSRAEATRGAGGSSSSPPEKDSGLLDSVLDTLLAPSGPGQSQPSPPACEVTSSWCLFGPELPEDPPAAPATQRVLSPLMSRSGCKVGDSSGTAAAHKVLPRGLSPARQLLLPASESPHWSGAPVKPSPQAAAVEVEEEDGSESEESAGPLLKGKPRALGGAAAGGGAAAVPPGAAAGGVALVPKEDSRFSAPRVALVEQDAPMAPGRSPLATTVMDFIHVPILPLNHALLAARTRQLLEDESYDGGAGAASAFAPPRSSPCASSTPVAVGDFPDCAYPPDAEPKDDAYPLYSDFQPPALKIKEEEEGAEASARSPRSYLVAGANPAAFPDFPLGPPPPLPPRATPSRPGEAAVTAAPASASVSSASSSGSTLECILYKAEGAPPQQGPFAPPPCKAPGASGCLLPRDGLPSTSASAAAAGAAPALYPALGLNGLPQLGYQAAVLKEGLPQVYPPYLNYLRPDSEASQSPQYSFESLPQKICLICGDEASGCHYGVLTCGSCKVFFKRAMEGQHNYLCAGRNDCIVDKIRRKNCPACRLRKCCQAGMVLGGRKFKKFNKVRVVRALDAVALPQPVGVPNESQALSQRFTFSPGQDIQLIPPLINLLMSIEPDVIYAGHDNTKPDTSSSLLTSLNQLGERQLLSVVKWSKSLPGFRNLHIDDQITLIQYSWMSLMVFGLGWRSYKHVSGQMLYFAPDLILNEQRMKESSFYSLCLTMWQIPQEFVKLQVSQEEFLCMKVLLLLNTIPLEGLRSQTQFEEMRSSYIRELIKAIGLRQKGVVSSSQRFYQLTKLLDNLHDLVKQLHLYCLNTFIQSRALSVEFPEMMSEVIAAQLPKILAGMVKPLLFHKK

The target in assay [13] is T4, Gamma-aminobutyric acid receptor subunit alpha-1/alpha-2/beta-2/gamma-2 (Homo sapiens, UniProt P14867+P18507+P47869+P47870). It is filed as functional, cell-based.
Assay [14] has as its target T4, Gamma-aminobutyric acid receptor subunit alpha-1/alpha-2/beta-2/gamma-2. It is filed as functional, cell-based. This is another data set of the same source.
Assay [15] addresses T5, Peroxisome proliferator-activated receptor gamma (Homo sapiens, UniProt P37231).
T5 sequence (P37231 whole entry): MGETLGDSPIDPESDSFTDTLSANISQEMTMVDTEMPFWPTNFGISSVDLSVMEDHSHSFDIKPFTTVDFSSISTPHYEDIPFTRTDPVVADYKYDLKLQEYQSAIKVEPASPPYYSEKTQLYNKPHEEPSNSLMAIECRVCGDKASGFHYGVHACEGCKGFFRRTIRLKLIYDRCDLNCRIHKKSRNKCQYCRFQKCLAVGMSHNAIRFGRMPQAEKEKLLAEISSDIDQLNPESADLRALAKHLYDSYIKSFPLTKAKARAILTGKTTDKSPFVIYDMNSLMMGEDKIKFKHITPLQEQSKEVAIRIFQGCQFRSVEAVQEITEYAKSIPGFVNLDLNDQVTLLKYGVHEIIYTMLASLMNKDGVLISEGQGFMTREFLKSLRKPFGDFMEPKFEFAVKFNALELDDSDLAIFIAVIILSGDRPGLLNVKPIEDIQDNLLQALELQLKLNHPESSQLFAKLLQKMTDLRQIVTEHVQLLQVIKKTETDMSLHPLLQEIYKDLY
It is filed as functional.
Also: assay procedure not described here.

Sodium channel protein type 5 subunit alpha, sequence (Q14524 whole entry): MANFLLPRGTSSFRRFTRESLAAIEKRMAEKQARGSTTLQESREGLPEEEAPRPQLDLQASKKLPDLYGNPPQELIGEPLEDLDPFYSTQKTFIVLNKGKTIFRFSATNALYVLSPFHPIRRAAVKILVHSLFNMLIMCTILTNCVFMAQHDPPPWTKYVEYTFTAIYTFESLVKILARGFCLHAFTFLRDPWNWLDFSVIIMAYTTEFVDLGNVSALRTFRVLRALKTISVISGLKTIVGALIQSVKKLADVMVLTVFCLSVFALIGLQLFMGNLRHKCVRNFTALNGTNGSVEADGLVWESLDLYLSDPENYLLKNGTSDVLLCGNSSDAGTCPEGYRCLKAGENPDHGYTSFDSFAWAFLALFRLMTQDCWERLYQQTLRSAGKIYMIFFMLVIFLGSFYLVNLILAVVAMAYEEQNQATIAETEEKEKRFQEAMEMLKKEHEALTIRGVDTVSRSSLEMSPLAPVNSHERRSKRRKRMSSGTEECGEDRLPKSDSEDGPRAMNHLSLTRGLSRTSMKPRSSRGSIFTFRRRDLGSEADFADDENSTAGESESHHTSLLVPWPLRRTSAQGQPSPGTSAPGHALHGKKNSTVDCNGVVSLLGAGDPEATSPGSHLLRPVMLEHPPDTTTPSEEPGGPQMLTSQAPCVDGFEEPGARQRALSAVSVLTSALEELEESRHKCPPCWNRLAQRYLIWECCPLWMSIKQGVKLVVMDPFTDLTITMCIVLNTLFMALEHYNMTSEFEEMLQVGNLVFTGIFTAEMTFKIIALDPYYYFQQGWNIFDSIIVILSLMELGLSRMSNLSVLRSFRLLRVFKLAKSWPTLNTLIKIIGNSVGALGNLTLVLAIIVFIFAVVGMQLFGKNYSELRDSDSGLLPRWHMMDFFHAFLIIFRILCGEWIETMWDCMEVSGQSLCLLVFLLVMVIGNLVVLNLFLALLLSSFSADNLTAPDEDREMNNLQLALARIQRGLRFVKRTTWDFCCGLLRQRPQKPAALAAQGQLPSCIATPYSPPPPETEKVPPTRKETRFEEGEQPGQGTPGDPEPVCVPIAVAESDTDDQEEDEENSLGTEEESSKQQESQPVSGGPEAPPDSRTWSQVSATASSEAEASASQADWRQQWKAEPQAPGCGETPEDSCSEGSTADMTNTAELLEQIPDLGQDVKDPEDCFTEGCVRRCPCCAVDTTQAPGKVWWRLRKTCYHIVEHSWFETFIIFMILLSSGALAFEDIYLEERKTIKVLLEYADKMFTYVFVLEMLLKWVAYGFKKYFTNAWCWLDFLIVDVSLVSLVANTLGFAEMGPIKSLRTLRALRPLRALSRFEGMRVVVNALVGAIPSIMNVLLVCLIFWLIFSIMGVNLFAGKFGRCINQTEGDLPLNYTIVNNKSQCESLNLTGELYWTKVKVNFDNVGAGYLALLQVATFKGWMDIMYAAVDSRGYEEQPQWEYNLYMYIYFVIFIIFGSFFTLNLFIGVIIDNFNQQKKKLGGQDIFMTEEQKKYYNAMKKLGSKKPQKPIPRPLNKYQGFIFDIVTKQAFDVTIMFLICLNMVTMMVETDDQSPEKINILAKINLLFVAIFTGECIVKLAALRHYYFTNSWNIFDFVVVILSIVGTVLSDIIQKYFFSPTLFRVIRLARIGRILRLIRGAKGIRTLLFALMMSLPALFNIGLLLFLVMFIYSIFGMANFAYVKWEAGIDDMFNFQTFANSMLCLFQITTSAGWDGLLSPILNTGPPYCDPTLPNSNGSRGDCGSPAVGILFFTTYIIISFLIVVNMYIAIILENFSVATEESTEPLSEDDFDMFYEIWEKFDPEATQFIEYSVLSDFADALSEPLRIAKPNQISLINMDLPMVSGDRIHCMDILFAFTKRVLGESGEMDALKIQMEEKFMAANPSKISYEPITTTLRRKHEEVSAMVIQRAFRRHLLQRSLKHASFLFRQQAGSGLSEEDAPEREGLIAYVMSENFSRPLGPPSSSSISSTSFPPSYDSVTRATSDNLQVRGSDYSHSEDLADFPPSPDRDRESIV
Synaptic vesicular amine transporter, sequence (Q01827 whole entry): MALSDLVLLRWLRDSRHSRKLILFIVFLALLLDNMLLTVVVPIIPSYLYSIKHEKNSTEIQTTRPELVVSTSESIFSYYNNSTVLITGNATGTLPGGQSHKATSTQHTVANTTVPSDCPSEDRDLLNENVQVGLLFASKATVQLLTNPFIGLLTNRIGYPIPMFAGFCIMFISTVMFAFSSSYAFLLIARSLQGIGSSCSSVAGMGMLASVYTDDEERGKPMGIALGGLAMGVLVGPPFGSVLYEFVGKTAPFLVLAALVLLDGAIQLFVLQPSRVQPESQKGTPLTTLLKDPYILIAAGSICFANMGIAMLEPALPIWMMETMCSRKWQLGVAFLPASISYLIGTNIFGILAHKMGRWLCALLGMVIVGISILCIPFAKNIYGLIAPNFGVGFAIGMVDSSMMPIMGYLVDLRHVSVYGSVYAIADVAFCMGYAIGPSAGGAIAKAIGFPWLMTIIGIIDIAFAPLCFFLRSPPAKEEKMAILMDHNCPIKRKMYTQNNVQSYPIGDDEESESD
T4 sequence (P14867 whole entry): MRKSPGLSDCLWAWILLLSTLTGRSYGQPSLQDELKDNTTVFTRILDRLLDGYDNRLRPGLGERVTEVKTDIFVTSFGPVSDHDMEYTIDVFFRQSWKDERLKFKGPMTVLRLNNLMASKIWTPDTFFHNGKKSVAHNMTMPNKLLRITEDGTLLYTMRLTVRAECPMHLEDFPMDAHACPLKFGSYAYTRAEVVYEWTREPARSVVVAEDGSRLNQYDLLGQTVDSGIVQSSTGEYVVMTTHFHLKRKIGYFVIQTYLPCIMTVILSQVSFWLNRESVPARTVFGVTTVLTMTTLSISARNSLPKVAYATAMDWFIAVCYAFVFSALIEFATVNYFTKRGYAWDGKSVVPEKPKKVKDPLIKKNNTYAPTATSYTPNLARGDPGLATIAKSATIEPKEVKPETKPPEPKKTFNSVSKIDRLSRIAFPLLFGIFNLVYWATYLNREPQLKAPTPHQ
T4 sequence (P47870 whole entry): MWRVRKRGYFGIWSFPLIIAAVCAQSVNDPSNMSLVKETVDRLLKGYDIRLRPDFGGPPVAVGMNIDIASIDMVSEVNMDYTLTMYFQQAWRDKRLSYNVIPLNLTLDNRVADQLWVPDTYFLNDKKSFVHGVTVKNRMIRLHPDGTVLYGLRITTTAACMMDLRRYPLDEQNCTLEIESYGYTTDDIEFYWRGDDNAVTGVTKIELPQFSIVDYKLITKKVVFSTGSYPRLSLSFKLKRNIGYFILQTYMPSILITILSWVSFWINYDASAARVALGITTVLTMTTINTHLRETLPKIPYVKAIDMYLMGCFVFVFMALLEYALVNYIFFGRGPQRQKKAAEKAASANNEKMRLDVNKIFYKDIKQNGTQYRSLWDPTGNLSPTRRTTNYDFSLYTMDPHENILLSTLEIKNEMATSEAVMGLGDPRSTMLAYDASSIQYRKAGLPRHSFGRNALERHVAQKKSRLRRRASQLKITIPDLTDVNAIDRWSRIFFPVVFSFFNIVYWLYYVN
T4 sequence (P18507 whole entry): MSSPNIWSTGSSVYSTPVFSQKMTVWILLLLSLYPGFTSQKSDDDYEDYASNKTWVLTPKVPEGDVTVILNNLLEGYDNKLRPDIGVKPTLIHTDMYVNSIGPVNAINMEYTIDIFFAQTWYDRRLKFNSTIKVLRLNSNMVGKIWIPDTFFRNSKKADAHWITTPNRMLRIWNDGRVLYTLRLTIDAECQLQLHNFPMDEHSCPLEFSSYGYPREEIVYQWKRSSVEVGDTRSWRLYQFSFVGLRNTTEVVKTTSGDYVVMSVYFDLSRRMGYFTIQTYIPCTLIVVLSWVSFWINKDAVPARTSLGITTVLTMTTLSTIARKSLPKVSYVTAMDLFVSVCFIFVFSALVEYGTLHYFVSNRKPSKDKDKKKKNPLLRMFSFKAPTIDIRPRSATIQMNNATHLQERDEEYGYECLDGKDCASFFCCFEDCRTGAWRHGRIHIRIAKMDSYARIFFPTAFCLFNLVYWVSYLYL
T4 sequence (P47869 whole entry): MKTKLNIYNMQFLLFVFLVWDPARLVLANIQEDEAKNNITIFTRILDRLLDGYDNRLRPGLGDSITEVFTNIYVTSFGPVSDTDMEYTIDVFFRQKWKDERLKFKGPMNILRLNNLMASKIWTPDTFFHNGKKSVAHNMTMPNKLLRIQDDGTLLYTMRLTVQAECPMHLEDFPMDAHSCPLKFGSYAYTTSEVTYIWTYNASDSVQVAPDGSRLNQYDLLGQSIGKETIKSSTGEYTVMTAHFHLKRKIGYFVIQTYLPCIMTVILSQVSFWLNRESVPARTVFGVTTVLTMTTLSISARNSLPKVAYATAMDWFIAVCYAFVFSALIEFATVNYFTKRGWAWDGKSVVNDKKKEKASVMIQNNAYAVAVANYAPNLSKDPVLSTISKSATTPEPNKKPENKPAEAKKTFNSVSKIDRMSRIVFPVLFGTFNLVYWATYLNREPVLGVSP
Neurotensin receptor type 1, sequence (P30989 whole entry): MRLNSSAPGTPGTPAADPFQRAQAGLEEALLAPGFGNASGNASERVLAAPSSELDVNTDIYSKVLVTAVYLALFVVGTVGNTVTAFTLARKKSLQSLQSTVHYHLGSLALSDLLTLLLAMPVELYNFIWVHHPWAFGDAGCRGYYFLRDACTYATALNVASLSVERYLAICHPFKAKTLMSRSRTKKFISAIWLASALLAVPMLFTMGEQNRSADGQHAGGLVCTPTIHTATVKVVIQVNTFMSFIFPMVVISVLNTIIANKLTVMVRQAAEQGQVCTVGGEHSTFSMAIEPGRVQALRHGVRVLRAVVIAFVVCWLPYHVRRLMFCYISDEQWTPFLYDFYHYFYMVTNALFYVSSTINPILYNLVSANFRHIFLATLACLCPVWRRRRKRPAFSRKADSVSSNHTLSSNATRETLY

Consider `COC(=O)N[C@H](C(=O)N1CCC[C@H]1c1nc(-c2ccc(-c3ccc(-c4c[nH]c([C@@H]5CCCN5C(=O)[C@@H](NC(=O)OC)C(C)C)n4)cc3)cc2)c[nH]1)C(C)C`, for which, in assay [1], the AC50 was over 30 µM.
In the case of `CCOC(=O)[C@H](CCc1ccccc1)N[C@@H](C)C(=O)N1CCC[C@H]1C(=O)O`, the AC50 in assay [1] was over 30 µM; in assay [2] it was over 10 µM; in assay [3], over 30 µM; in assay [4] it was over 10 µM; in assay [5] it was over 10 µM; in assay [6] it was over 30 µM. Further, the AC50 is over 30 µM in [7], over 10 µM in [8] and over 10 µM in [9].
Turning to `O=C1c2c(O)c(=O)ccn2N([C@@H]2c3ccccc3SCc3c2ccc(F)c3F)[C@@H]2COCCN12` [BALOXAVIR], the AC50 was over 50 µM in [1], 22 µM in assay [10] and over 30 µM in assay [11].
Regarding `CC(C)NCC(O)COc1ccc(COCCOC(C)C)cc1` (centres undefined) [BISOPROLOL], the AC50 was over 30 µM in [1]; over 10 µM in assay [2]; over 30 µM in assay [12]; over 30 µM in assay [3]; over 10 µM in assay [5]; over 30 µM in assay [7]. Moreover, in assay [9], the AC50 was over 10 µM.
As for `CCC[C@@H]1C[C@@H](C(=O)N[C@@H]([C@H]2O[C@H](SC)[C@H](O)[C@@H](O)[C@H]2O)[C@H](C)Cl)N(C)C1` [CLINDAMYCIN], the AC50 in assay [10] was over 30 µM; in assay [2], over 10 µM; in assay [12], over 30 µM; in assay [3], over 30 µM; in assay [5], over 10 µM; in assay [6], over 30 µM. In addition, the AC50 in assay [7] is over 30 µM; in [9], over 10 µM.
For `CN(CCOc1ccc(NS(C)(=O)=O)cc1)CCc1ccc(NS(C)(=O)=O)cc1` [DOFETILIDE], the AC50 in assay [10] was 1.7 µM; in assay [2] it was over 10 µM; in assay [12] it was over 30 µM; in assay [3], over 30 µM; in assay [5] it was over 10 µM; in assay [6], over 30 µM. The AC50 in [11] is over 30 µM; in [7] it was over 30 µM; in assay [9], over 10 µM.
In the case of `C#C[C@]1(O)CC[C@H]2[C@@H]3CCc4cc(O)ccc4[C@H]3CC[C@@]21C` [ETHINYL ESTRADIOL], the AC50 is over 30 µM in [1]; over 10 µM in [2]; over 30 µM in assay [12]; over 30 µM in assay [3]; over 30 µM in assay [4]; over 10 µM in [5]. In addition, the half-maximal activity concentration (AC50) in [6] is 35.4 µM; in [11], over 30 µM; in assay [7] it was over 30 µM; in assay [8], over 30 µM; in assay [9], over 10 µM.
In the case of `CCOC(=O)c1ccc(O)cc1` [ETHYLPARABEN], the AC50 in [10] is 22 µM; in assay [11] it was over 30 µM.
For `O=C(COc1ccc(Cl)cc1)N1CCN(Cc2ccc3c(c2)OCO3)CC1` [FIPEXIDE], the AC50 was over 50 µM in assay [1], 0.15 µM in [10] and over 30 µM in assay [11].
For the molecule `OC[C@@H](O)[C@@H](O)[C@H](O)[C@H](O)CO` [MANNITOL], the AC50 in assay [10] and in assay [11] was over 30 µM each time.
Consider `CN1C(=O)CC(C)(c2ccccc2)C1=O` (centres undefined) [METHSUXIMIDE], for which, in assay [10], the AC50 is over 30 µM.
In assay [1], `COC(=O)C1=C(C)NC(C)=C(C(=O)OCC(C)C)C1c1ccccc1[N+](=O)[O-]` (centres undefined) [NISOLDIPINE] displayed an AC50 of 8.6 µM.
As to `CC(O)CO` (centres undefined) [PROPYLENE GLYCOL], the AC50 in assay [10] and in assay [11] was over 30 µM in each case.
On to `NC(=O)c1cnccn1` [PYRAZINAMIDE], for which the AC50 was over 10 µM in assay [2]; over 30 µM in [12]; over 30 µM in [3]; over 10 µM in assay [4]; over 10 µM in assay [5]; over 30 µM in [6]. Further, the AC50 was over 30 µM in assay [11], over 30 µM in [7], over 10 µM in assay [8] and over 10 µM in [9].
Consider `O=C(NC[C@H]1CN(c2ccc(N3CCOCC3=O)cc2)C(=O)O1)c1ccc(Cl)s1` [RIVAROXABAN], for which the AC50 in assay [1] was over 50 µM; in assay [13] it was over 30 µM; in assay [14] it was over 30 µM; in [11], over 30 µM.
With `CC(C)OC(=O)[C@H](C)N[P@](=O)(OC[C@H]1O[C@@H](n2ccc(=O)[nH]c2=O)[C@](C)(F)[C@@H]1O)Oc1ccccc1` [SOFOSBUVIR], the results for the AC50 in assay [1], in assay [10] and in assay [11] were over 50 µM, over 30 µM and over 30 µM, respectively.
As for `CS(=O)(=O)c1ccc([C@@H](O)[C@@H](CO)NC(=O)C(Cl)Cl)cc1` [THIAMPHENICOL], the AC50 is over 50 µM in assay [1], over 30 µM in assay [10] and over 30 µM in [11].
Consider `CC(=O)OC[C@H]1O[C@@H](n2ccc(=O)[nH]c2=O)[C@H](OC(C)=O)[C@@H]1OC(C)=O` [URIDINE TRIACETATE], for which the AC50 in [10] and in assay [11] was over 30 µM in each case.
As for `CCCS(=O)(=O)Nc1ccc(F)c(C(=O)c2c[nH]c3ncc(-c4ccc(Cl)cc4)cc23)c1F` [VEMURAFENIB], the AC50 in [1] was over 30 µM.
Take `OCc1cc([C@@H](O)CNCCCCCCOCCOCc2c(Cl)cccc2Cl)ccc1O` [VILANTEROL]: the AC50 in assay [1] was 5 µM; in assay [13] it was over 30 µM; in assay [15], over 30 µM; in assay [14], over 30 µM.
In the case of `O=C(CCCCCCC(=O)Nc1ccccc1)NO` [VORINOSTAT], the AC50 in assay [2] is over 10 µM; in assay [4] it was over 10 µM; in assay [5], over 10 µM; in assay [13] it was over 30 µM; in assay [14], over 30 µM; in assay [7], over 10 µM. In addition, the AC50 in assay [8] and in assay [9] was over 10 µM in each case.
